One experiment deals with T1, rat FAAH (Rattus norvegicus, UniProt P97612).
T1 construct: expressed in transfected cells
T1 sequence (P97612 1-579): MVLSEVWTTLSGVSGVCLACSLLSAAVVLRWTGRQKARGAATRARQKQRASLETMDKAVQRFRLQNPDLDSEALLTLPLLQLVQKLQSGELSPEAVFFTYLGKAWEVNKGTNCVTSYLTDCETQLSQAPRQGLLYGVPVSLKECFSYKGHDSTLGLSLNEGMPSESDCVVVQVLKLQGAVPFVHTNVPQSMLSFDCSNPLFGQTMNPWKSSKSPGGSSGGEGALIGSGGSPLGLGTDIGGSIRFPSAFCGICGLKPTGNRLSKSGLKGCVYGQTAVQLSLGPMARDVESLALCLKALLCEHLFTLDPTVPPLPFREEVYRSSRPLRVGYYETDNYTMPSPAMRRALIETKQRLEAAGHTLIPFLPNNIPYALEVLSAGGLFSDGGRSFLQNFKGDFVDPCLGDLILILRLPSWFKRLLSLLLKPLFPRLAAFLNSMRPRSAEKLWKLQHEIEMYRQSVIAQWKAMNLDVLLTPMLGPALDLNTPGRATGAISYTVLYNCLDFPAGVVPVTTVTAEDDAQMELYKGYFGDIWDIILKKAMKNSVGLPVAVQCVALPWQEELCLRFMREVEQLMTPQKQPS
The experiment can be described thus: Assay Method 2: FAAH assay, hydrolysis of 3H-anandamide by homogenate of SK-N-MC cells transfected with rat FAAH. It counts as biochemical. As to conditions: T84 or transfected SK-N-MC cell homogenate, 3H-AEA tracer 80 nM, rt 1 h, pH 9. The essentials: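 SK-N-MC cells stably transfected with rat FAAH cDNA (electroporation, G418 selection); homogenate hydrolyses 3H-anandamide. Reaction 1 h at rt, then filtered through activated charcoal; unbound labelled ethanolamine in filtrate counted by scintillation.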

The next experiment has as its target T2, human FAAH (Homo sapiens, UniProt O00519).
T2 construct: expressed in transfected cells
T2 sequence (O00519 1-579): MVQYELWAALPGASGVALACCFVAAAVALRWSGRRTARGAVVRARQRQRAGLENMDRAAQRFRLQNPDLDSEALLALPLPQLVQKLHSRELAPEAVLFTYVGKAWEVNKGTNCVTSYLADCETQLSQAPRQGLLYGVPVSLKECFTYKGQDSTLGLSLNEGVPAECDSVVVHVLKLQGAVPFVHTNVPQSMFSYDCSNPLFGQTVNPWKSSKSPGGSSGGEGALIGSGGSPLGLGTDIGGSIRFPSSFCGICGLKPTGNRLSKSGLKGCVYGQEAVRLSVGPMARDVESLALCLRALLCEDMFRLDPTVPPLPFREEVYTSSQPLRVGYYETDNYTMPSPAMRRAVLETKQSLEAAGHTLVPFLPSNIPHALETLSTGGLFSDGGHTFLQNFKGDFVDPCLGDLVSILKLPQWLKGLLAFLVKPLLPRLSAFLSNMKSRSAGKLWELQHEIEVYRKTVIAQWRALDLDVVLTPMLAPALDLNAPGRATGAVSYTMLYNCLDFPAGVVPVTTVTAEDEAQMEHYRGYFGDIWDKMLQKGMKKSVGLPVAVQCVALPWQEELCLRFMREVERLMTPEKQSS
The experiment in a line: Assay Method 1: FAAH assay, hydrolysis of 3H-anandamide by homogenate of SK-N-MC cells transfected with human FAAH. Format: biochemical. The essentials: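 Homogenate of SK-N-MC cells stably expressing human FAAH (G418-selected clones) incubated with compound and 80 nM [1-3H-ethanolamine]anandamide for 1 h at rt. Released 3H-ethanolamine separated from substrate by activated-charcoal filtration, then counted by scintillation.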

[1] abbreviates: human FAAH, T84 or transfected SK-N-MC cell homogenate, 3H-AEA tracer 80 nM, rt 1 h, pH 9, read-out: Assay 1 IC50.

The values that follow come from patent US20090111778A1, “2-Keto-Oxazoles as Modulators of Fatty Acid Amide Hydrolase” (priority 2005, published 2009).

Structures are written as SMILES. Like-named read-outs stand apart in the source and are kept apart here.

Take `Cc1ccccc1CN1CCC(CCCC(=O)c2ncco2)CC1` [Example 80, 4-[1-(2-Methyl-benzyl)-piperidin-4-yl]-1-oxazol-2-yl-butan-1-one]: the half-maximal inhibitory concentration (IC50) (as a rule, the concentration that gives 50% inhibition) against rat FAAH amounted to 2000 nM; on human FAAH (setting [1]) it was 1200 nM.
Turning to `O=C(CCCC1CCN(C(=O)CCc2ccccc2)CC1)c1ncco1` [Example 36, 1-Oxazol-2-yl-4-[1-(3-phenyl-propionyl)-piperidin-4-yl]-butan-1-one], the IC50 turned out to be 56 nM at rat FAAH and 46 nM at human FAAH (setting [1]).
As for `O=C(CCCC1CCN(Cc2cccc(Br)n2)CC1)c1ncco1` [Example 77, 4-[1-(6-Bromo-pyridin-2-ylmethyl)-piperidin-4-yl]-1-oxazol-2-yl-butan-1-one], the IC50 came to 1000 nM on rat FAAH and 313 nM on human FAAH (setting [1]).
In the same order, the values of `O=C(CCCC1CCN(Cc2cccc(Oc3ccccc3)c2)CC1)c1ncco1` [Example 2, 1-Oxazol-2-yl-4-[1-(3-phenoxy-benzyl)-piperidin-4-yl]-butan-1-one] are 4.7 nM and 0.4 nM.
The corresponding values for `Cc1ccccc1CCC(=O)N1CCC(CCCC(=O)c2ncco2)CC1` [Example 45, 1-Oxazol-2-yl-4-[1-(3-o-tolyl-propionyl)-piperidin-4-yl]-butan-1-one] are 130 nM and 109 nM.
The corresponding values for `O=C(CCCC1CCN(C(=O)Cc2ccc(Cl)cc2)CC1)c1ncco1` [Example 40, 4-{1-[2-(4-Chloro-phenyl)-acetyl]-piperidin-4-yl}1-oxazol-2-yl-butan-1-one] are 75 nM and 43 nM.
In the case of `CCCS(=O)(=O)N1CCC(CCCC(=O)c2ncco2)CC1` [Example 57, 1-Oxazol-2-yl-4-[1-(propane-1-sulfonyl)-piperidin-4-yl]-butan-1-one], the IC50 stood at 1600 nM against rat FAAH and 120 nM on human FAAH (setting [1]).
The corresponding values for `CC(C)c1ccc(CN2CCC(CCCC(=O)c3ncco3)CC2)cc1` [Example 22, 4-[1-(4-Isopropyl-benzyl)-piperidin-4-yl]-1-oxazol-2-yl-butan-1-one] are 5 nM and 3 nM.
In the same order, the values of `O=C(CCCC1CCN(C(=O)COc2ccc(Cl)cc2)CC1)c1ncco1` [Example 35, 4-{1-[2-(4-Chloro-phenoxy)-acetyl]-piperidin-4-yl}-1-oxazol-2-yl-butan-1-one] are 38 nM and 19 nM.
Turning to `O=C(CCCC1CCN(C(=O)CCc2cccnc2)CC1)c1ncco1` [Example 47, 1-Oxazol-2-yl-4-[1-(3-pyridin-3-yl-propionyl)-piperidin-4-yl]-butan-1-one], the IC50 at rat FAAH came to 700 nM; at human FAAH (setting [1]), 400 nM.
In the case of `O=C(CCCC1CCN(Cc2ccc(-c3ccccc3)cc2)CC1)c1ncco1` [Example 73, 4-(1-Biphenyl-4-ylmethyl-piperidin-4-yl)-1-oxazol-2-yl-butan-1-one], the IC50 at rat FAAH came out at 45 nM; on human FAAH (setting [1]), 24 nM.
The corresponding values for `CC(C)(C)OC(=O)N1CCC(CCCC(=O)c2ncc(C(=O)O)o2)CC1` [Example 130, 4-[4-(5-Carboxy-oxazol-2-yl)-4-oxo-butyl]-piperidine-1-carboxylic acid tert-butyl ester] are 19 nM and 30 nM.
Turning to `O=C(CCCC1CCN(C(=O)OCc2ccccc2)CC1)c1ncco1` [Example 63, 4-(4-Oxazol-2-yl-4-oxo-butyl)-piperidine-1-carboxylic acid benzyl ester], the concentration for half-maximal inhibition (IC50) is 2 nM against rat FAAH and 3 nM at human FAAH (setting [1]).
For `O=C(CCCC1CCN(S(=O)(=O)CCc2ccccc2)CC1)c1ncco1` [Example 54, 1-Oxazol-2-yl-4-[1-(2-phenyl-ethanesulfonyl)-piperidin-4-yl]-butan-1-one], the half-maximal inhibitory concentration (IC50) against rat FAAH is 125 nM; at human FAAH (setting [1]) it was 6 nM.
Turning to `O=C(CCCC1CCN(Cc2ccc(-c3cccs3)nc2)CC1)c1ncco1` [Example 110, 1-Oxazol-2-yl-4-[1-(6-thiophen-2-yl-pyridin-3-ylmethyl)-piperidin-4-yl]-butan-1-one], the IC50 against rat FAAH came to 141 nM; on human FAAH (setting [1]) it was 9 nM.
For the molecule `COCCOC(=O)N1CCC(CCCC(=O)c2ncco2)CC1` [Example 65, 4-(4-Oxazol-2-yl-4-oxo-butyl)-piperidine-1-carboxylic acid 2-methoxy-ethyl ester], the results for the IC50 at rat FAAH and at human FAAH (setting [1]) were 240 nM and 69 nM, respectively.
In the same order, the values of `O=C(CCCC1CCN(Cc2ccc(Cl)cc2)CC1)c1ncco1` [Example 9, 4-[1-(4-Chloro-benzyl)-piperidin-4-yl]-1-oxazol-2-yl-butan-1-one] are 354 nM and 66 nM.
As to `COc1ccc(CN2CCC(CCCC(=O)c3ncco3)CC2)cc1` [Example 16, 4-[1-(4-Methoxy-benzyl)-piperidin-4-yl]-1-oxazol-2-yl-butan-1-one], the figures for the IC50 against rat FAAH and on human FAAH were 663 nM and 132 nM, respectively.
For `CC(C)c1ccc(CN2CCC(CCCC(=O)c3ncco3)CC2)cn1` [Example 132, 4-[1-(6-Isopropyl-pyridin-3-ylmethyl)-piperidin-4-yl]-1-oxazol-2-yl-butan-1-one], the IC50 on rat FAAH came out at 950 nM; on human FAAH (setting [1]), 52 nM.
As to `O=C(CCCC1CCN(Cc2ccc(C(F)(F)F)c(F)c2)CC1)c1ncco1` [Example 137, 4-[1-(3-Fluoro-4-trifluoromethyl-benzyl)-piperidin-4-yl]-1-oxazol-2-yl-butan-1-one], the IC50 at rat FAAH was 380 nM; on human FAAH (setting [1]) it was 10 nM.
For `O=C(CCCC1CCN(Cc2cc(F)c(F)c(F)c2)CC1)c1ncco1` [Example 131, 1-Oxazol-2-yl-4-[1-(3,4,5-trifluoro-benzyl)-piperidin-4-yl]-butan-1-one], the 50% inhibitory concentration (IC50) on rat FAAH was 760 nM; on human FAAH (setting [1]), 88 nM.
In the same order, the values of `O=C(CCCC1CCN(Cc2cc(F)ccc2F)CC1)c1ncco1` [Example 113, 4-[1-(2,5-Difluoro-benzyl)-piperidin-4-yl]-1-oxazol-2-yl-butan-1-one] are 318 nM and 28 nM.
The corresponding values for `CC(C)(C)CC(=O)N1CCC(CCCC(=O)c2ncco2)CC1` [Example 25, 3,3-Dimethyl-1-[4-(4-oxazol-2-yl-4-oxo-butyl)-piperidin-1-yl]-butan-1-one] are 320 nM and 90 nM.
In the same order, the values of `CC(C)C(=O)N1CCC(CCCC(=O)c2ncco2)CC1` [Example 30, 4-(1-Isobutyryl-piperidin-4-yl)-1-oxazol-2-yl-butan-1-one] are 2250 nM and 250 nM.
On to `O=C(CCCC1CCN(C(=O)COc2ccccc2)CC1)c1ncco1` [Example 33, 1-Oxazol-2-yl-4-[1-(2-phenoxy-acetyl)-piperidin-4-yl]-butan-1-one], for which the IC50 came to 889 nM at rat FAAH and 848 nM on human FAAH (setting [1]).
Take `O=C(CCCC1CCN(Cc2ccc(OC3CCCCC3)cc2)CC1)c1ncco1` [Example 134, 4-[1-(4-Cyclohexyloxy-benzyl)-piperidin-4-yl]-1-oxazol-2-yl-butan-1-one]: the IC50 against rat FAAH and at human FAAH (setting [1]) was 119 nM throughout.
Turning to `Cc1cccc(CN2CCC(CCCC(=O)c3ncco3)CC2)c1` [Example 19, 4-[1-(3-Methyl-benzyl)-piperidin-4-yl]-1-oxazol-2-yl-butan-1-one], the IC50 is 305 nM against rat FAAH and 90 nM on human FAAH (setting [1]).
